Counter-ions that a name gives are not always drawn.
How the values were obtained:
[1] = test system: A431 cells (human epidermoid carcinoma); assay: In vitro tumor cell proliferation assay (Cell Titer-Glo luminescent cell viability), A431; format: cell-based; settings: A-431, 72 h, 72 hours of drug exposure, ATP luminescence readout, read-out: IC50, anti-proliferative activity (inhibition of cell proliferation)
Text: (§1) In vitro Tumor Cell Proliferation Assay
(§2) The tumor cell proliferation assay used to test the compounds of the present invention involves a readout called Cell Titer-Glow® Luminescent Cell Viability Assay developed by Promega® (Cunningham, B A “A Growing Issue: Cell Proliferation Assays, Modern kits ease quantification of cell growth” The Scientist 2001, 15(13), 26, and Crouch, S P et al., “The use of ATP bioluminescence as a measure of cell proliferation and cytotoxicity” Journal of Immunological Methods 1993, 160, 81-88), that measures inhibition of cell proliferation. Generation of a luminescent signal corresponds to the amount of ATP present, which is directly proportional to the number of metabolically active (proliferating) cells.
(§3) A431cells (human epidermoid carcinoma, ATCC […]) and BT474 (human breast carcinoma, ATCC […]) were plated at a density of 2.5×10^3 cells/well in 96 well black-clear bottom tissue culture plates in RPMI media with 10% Fetal Bovine Serum and incubated at 37° C. Twenty-four hours later, test compounds are added at a final concentration range from as high […] to as low 64 pM depend on the activities of the tested compounds in serial dilutions at a final DMSO concentration of 0.1%. Cells were incubated for 72 hours at 37° C. in complete growth media after addition of the test compound. After 72 hours of drug exposure, the plates were equilibrated to room temperature for approximately 30 min. Then, using a Promega Cell Titer Glo Luminescent® assay kit, lysis buffer containing 100 microliters of the enzyme luciferase and its substrate, luciferin mixture, was added to each well. The plates were mixed for 2 min on orbital shaker to ensure cell lysis and incubated for 10 min at room temperature to stabilize luminescence signal. The samples were read on VICTOR 2 using Luminescence protocol, and analyzed with Analyze5 software to generate IC50 values.

[2] = test system: BT474 (human breast carcinoma); assay: In vitro tumor cell proliferation assay (Cell Titer-Glo luminescent cell viability), BT474; format: cell-based; settings: BT-474, 72 h, BT474 cells, 72 hours of drug exposure, ATP luminescence readout, read-out: IC50, anti-proliferative activity (inhibition of cell proliferation)
Text: as §1, §2, §3

With `Fc1cccc(COc2ccc(Nc3ncnc4sc5c(c34)CCc3nn(CCn4ccnc4)cc3-5)cc2Cl)c1` [Example 77, N-{3-chloro-4-[(3-fluorobenzyl)oxy]phenyl}-2-[2-(1H-imidazol-1-yl)ethyl]-4,5-dihydro-2H-pyrimido[5′,4′:4,5]thieno[2,3-e]indazol-6-amine] the IC50 [1] was at most 5 µM and the IC50 [2] was at most 1 µM.

With `CN(C)CCNCCn1cc2c(n1)CCc1c-2sc2ncnc(Nc3ccc(OCc4cccc(F)c4)c(Cl)c3)c12` [Example 67, N′-{2-[6-({3-chloro-4-[(3-fluorobenzyl)oxy]phenyl}amino)-4,5-dihydro-2H-pyrimido[5′,4′:4,5]thieno[2,3-e]indazol-2-yl]ethyl}-N,N-dimethylethane-1,2-diamine] the IC50 [1] was at most 5 µM and the IC50 [2] was at most 1 µM.

`O[C@H](CN1CCSCC1)Cn1cc2c(n1)CCc1c-2sc2ncnc(Nc3ccc(OCc4cccc(F)c4)c(Cl)c3)c12` [Example 139, (2R)-1-[6-({3-chloro-4-[(3-fluorobenzyl)oxy]phenyl}amino)-4,5-dihydro-2H-pyrimido[5′,4′:4,5]thieno[2,3-e]indazol-2-yl]-3-thiomorpholin-4-ylpropan-2-ol] was tested, and the IC50 [1] was at most 50 µM and the IC50 [2] was at most 1 µM.

With `CS(=O)(=O)CCNCCn1cc2c(n1)CCc1c-2sc2ncnc(Nc3ccc4c(cnn4Cc4ccccc4)c3)c12` [Example 307, N-(1-benzyl-1H-indazol-5-yl)-2-(2-{[2-(methylsulfonyl)ethyl]amino}ethyl)-4,5-dihydro-2H-pyrimido[5′,4′:4,5]thieno[2,3-e]indazol-6-amine] the IC50 [1] was at most 50 µM and the IC50 [2] was at most 1 µM.

For `Cc1cc(Oc2ccc(Nc3ncnc4sc5c(c34)CCc3nn(CCN4CCN(C)CC4)cc3-5)c(F)c2)ccn1` [Example 341, N-{2-fluoro-4-[(2-methylpyridin-4-yl)oxy]phenyl}-2-[2-(4-methylpiperazin-1-yl)ethyl]-4,5-dihydro-2H-pyrimido[5′,4′:4,5]thieno[2,3-e]indazol-6-amine], the IC50 [1] was at most 50 µM and the IC50 [2] was at most 5 µM.

`Fc1cccc(Cn2ncc3cc(Nc4ncnc5sc6c(c45)CCc4nn(CCN5CCOCC5)cc4-6)ccc32)c1` [Example 278, N-[1-(3-fluorobenzyl)-1H-indazol-5-yl]-2-(2-morpholin-4-ylethyl)-4,5-dihydro-2H-pyrimido[5′,4′:4,5]thieno[2,3-e]indazol-6-amine] was tested, and the IC50 [1] was at most 5 µM and the IC50 [2] was at most 1 µM.

Molecule `CN1CCN(CCn2ncc3c2CCc2c-3sc3ncnc(Nc4ccc(OCc5cccc(C(F)(F)F)c5)c(Cl)c4)c23)CC1` [Example 319, N-(3-chloro-4-{[3-(trifluoromethyl)benzyl]oxy}phenyl)-3-[2-(4-methylpiperazin-1-yl)ethyl]-4,5-dihydro-3H-pyrimido[5′,4′:4,5]thieno[2,3-e]indazol-6-amine] has an IC50 [1] of at most 5 µM and an IC50 [2] of at most 5 µM.

`CN1CCC(n2cc3c(n2)CCc2c-3sc3ncnc(Nc4ccc(OCc5cccc(F)c5)c(Cl)c4)c23)CC1` [Example 228, N-{3-chloro-4-[(3-fluorobenzyl)oxy]phenyl}-2-(1-methylpiperidin-4-yl)-4,5-dihydro-2H-pyrimido[5′,4′:4,5]thieno[2,3-e]indazol-6-amine] gave an IC50 [1] of at most 5 µM and an IC50 [2] of at most 1 µM.

`COCCNCCn1cc2c(n1)CCc1c-2sc2ncnc(Nc3ccc(OCc4ccccn4)c(Cl)c3)c12` [Example 103, N-[3-chloro-4-(pyridin-2-ylmethoxy)phenyl]-2-{2-[(2-methoxyethyl)amino]ethyl}-4,5-dihydro-2H-pyrimido[5′,4′:4,5]thieno[2,3-e]indazol-6-amine] was tested, and the IC50 [1] was at most 50 µM and the IC50 [2] was at most 1 µM.

`CN1CCN(CCn2ncc3c2CCc2c-3sc3ncnc(Nc4ccc(OCc5cccc(F)c5)c(Cl)c4)c23)CC1` [Example 82, N-{3-chloro-4-[(3-fluorobenzyl)oxy]phenyl}-3-[2-(4-methylpiperazin-1-yl)ethyl]-4,5-dihydro-3H-pyrimido[5′,4′:4,5]thieno[2,3-e]indazol-6-amine] showed an IC50 [1] of at most 5 µM and an IC50 [2] of at most 1 µM.

`Clc1cc(Nc2ncnc3sc4c(c23)CCc2nn(CCBr)cc2-4)ccc1OCc1ccccn1` [Example 101, 2-(2-bromoethyl)-N-[3-chloro-4-(pyridin-2-ylmethoxy)phenyl]-4,5-dihydro-2H-pyrimido[5′,4′:4,5]thieno[2,3-e]indazol-6-amine] was tested, and the IC50 [1] was at most 50 µM and the IC50 [2] was at most 1 µM.

Work on `CN1CCN(CCn2cc3c(n2)CCc2c-3sc3ncnc(Nc4ccc5c(cnn5Cc5ccccn5)c4)c23)CC1` [Example 338, 2-[2-(4-methylpiperazin-1-yl)ethyl]-N-[1-(pyridin-2-ylmethyl)-1H-indazol-5-yl]-4,5-dihydro-2H-pyrimido[5′,4′:4,5]thieno[2,3-e]indazol-6-amine] yielded an IC50 [1] of at most 50 µM and an IC50 [2] of at most 1 µM.

In the case of `O[C@H](CN1CCCC1)Cn1cc2c(n1)CCc1c-2sc2ncnc(Nc3ccc(OCc4cccc(F)c4)c(Cl)c3)c12` [Example 149, (2R)-1-[6-({3-chloro-4-[(3-fluorobenzyl)oxy]phenyl}amino)-4,5-dihydro-2H-pyrimido[5′,4′:4,5]thieno[2,3-e]indazol-2-yl]-3-pyrrolidin-1-ylpropan-2-ol trifluoroacetate (salt)], the IC50 [1] is reported as at most 50 µM and the IC50 [2] is reported as at most 1 µM.

`CN1CCN(CCn2cc3c(n2)CCc2c-3sc3ncnc(Nc4ccc(Br)c(Cl)c4)c23)CC1` [Example 50, N-(4-bromo-3-chlorophenyl)-2-[2-(4-methylpiperazin-1-yl)ethyl]-4,5-dihydro-2H-pyrimido[5′,4′:4,5]thieno[2,3-e]indazol-6-amine] was tested, and the IC50 [1] was at most 5 µM and the IC50 [2] was at most 5 µM.

Work on `CS(=O)(=O)OCCn1cc2c(n1)CCc1c-2sc2ncnc(Nc3ccc(OCc4cccc(F)c4)c(Cl)c3)c12` [Example 57, 2-[6-({3-chloro-4-[(3-fluorobenzyl)oxy]phenyl}amino)-4,5-dihydro-2H-pyrimido[5′,4′:4,5]thieno[2,3-e]indazol-2-yl]ethyl methanesulfonate] yielded an IC50 [1] of at most 5 µM and an IC50 [2] of at most 1 µM.

For `CS(=O)(=O)OCCn1cc2c(n1)CCc1c-2sc2ncnc(Nc3ccc4c(cnn4Cc4cccc(F)c4)c3)c12` [Example 276, 2-(6-{[1-(3-fluorobenzyl)-1H-indazol-5-yl]amino}-4,5-dihydro-2H-pyrimido[5′,4′:4,5]thieno[2,3-e]indazol-2-yl)ethyl methanesulfonate], the IC50 [1] was at most 5 µM and the IC50 [2] was at most 1 µM.

In the case of `Fc1cccc(Cn2ncc3cc(Nc4ncnc5sc6c(c45)CCc4nn(CCn5ccnc5)cc4-6)ccc32)c1` [Example 279, N-[1-(3-fluorobenzyl)-1H-indazol-5-yl]-2-[2-(1H-imidazol-1-yl)ethyl]-4,5-dihydro-2H-pyrimido[5′,4′:4,5]thieno[2,3-e]indazol-6-amine], the IC50 [1] is reported as at most 5 µM and the IC50 [2] is reported as at most 1 µM.

`CCN(CC)C[C@@H](O)Cn1cc2c(n1)CCc1c-2sc2ncnc(Nc3ccc(OCc4cccc(F)c4)c(Cl)c3)c12` [Example 158, (2R)-1-[6-({3-chloro-4-[(3-fluorobenzyl)oxy]phenyl}amino)-4,5-dihydro-2H-pyrimido[5′,4′:4,5]thieno[2,3-e]indazol-2-yl]-3-(diethylamino)propan-2-ol trifluoroacetate (salt)] showed an IC50 [1] of at most 50 µM and an IC50 [2] of at most 5 µM.

In the case of `CS(=O)(=O)CCNC(=O)Cn1ncc2c1CCc1c-2sc2ncnc(Nc3ccc(OCc4cccc(F)c4)c(Cl)c3)c12` [Example 204, 2-[6-({3-chloro-4-[(3-fluorobenzyl)oxy]phenyl}amino)-4,5-dihydro-3H-pyrimido[5′,4′:4,5]thieno[2,3-e]indazol-3-yl]-N-[2-(methylsulfonyl)ethyl]acetamide], the IC50 [1] is reported as at most 50 µM and the IC50 [2] is reported as at most 1 µM.

Molecule `Fc1cccc(COc2ccc(Nc3ncnc4sc5c(c34)CCc3c-5cnn3CCCN3CCOCC3)cc2Cl)c1` [Example 271, N-{3-chloro-4-[(3-fluorobenzyl)oxy]phenyl}-3-(3-morpholin-4-ylpropyl)-4,5-dihydro-3H-pyrimido[5′,4′:4,5]thieno[2,3-e]indazol-6-amine] has an IC50 [1] of at most 50 µM and an IC50 [2] of at most 1 µM.

`CCCN1CCC(n2cc3c(n2)CCc2c-3sc3ncnc(Nc4ccc(OCc5cccc(F)c5)c(Cl)c4)c23)CC1` [Example 229, N-{3-chloro-4-[(3-fluorobenzyl)oxy]phenyl}-2-(1-propylpiperidin-4-yl)-4,5-dihydro-2H-pyrimido[5′,4′:4,5]thieno[2,3-e]indazol-6-amine] gave an IC50 [1] of at most 5 µM and an IC50 [2] of at most 1 µM.

`CC(C)(C)OC(=O)N1CCN(CCn2cc3c(n2)CCc2c-3sc3ncnc(Nc4ccc(F)c(Cl)c4)c23)CC1` [Example 27, tert-butyl 4-(2-{6-[(3-chloro-4-fluorophenyl)amino]-4,5-dihydro-2H-pyrimido[5′,4′:4,5]thieno[2,3-e]indazol-2-yl}ethyl)piperazine-1-carboxylate] showed an IC50 [1] of at most 5 µM and an IC50 [2] of at most 5 µM.
